The values that follow are results of earlier work, collected in PMC6838683, “Discovery of Human Signaling Systems: Pairing Peptides to G Protein-Coupled Receptors” (Cell, 2019).

This data set deals with human GPCRs. Further details: method as in Guide to Pharmacology database. The following applies: cited from earlier work. From the text: Supplement mmc1.xlsx, sheet "HumanGPCRLigands" | column: pKi_value; pKd_value; pEC50_value; pIC50_value
Setting [1] is: receptor RXFP4 (rl3r2_human, Q8TDU9), max reported value, ref Guide to Pharmacology database.
The mark [2] stands for this setting: receptor pacr_human (ADCYAP1R1, P41586), max reported value, ref Guide to Pharmacology database.
Setting [3] is: receptor vipr1_human (VIPR1, P32241), max reported value, ref Guide to Pharmacology database.
The mark [4] stands for this setting: receptor vipr2_human (VIPR2, P41587), max reported value, ref Guide to Pharmacology database.
The mark [5] stands for this setting: receptor pth2r_human (PTH2R, P49190), max reported value, ref Guide to Pharmacology database.
[6] abbreviates: receptor bkrb1_human (BDKRB1, P46663), max reported value, ref Guide to Pharmacology database.
Setting [7] is: receptor OPRD1 (oprd_human, P41143), max reported value, ref Guide to Pharmacology database.
Where [8] appears, read: receptor OPRM1 (oprm_human, P35372), max reported value, ref Guide to Pharmacology database.
Where [9] appears, read: receptor apj_human (APLNR, P35414), max reported value, ref Guide to Pharmacology database.
[10] abbreviates: receptor mrgx1_human (MRGPRX1), Class A orphans, max reported value, ref Guide to Pharmacology database.
The mark [11] stands for this setting: receptor OPRK1 (oprk_human, P41145), max reported value, ref Guide to Pharmacology database.
Setting [12] is: receptor gipr_human (GIPR, P48546), max reported value, ref Guide to Pharmacology database.
Setting [13] is: receptor ghsr_human (GHSR, Q92847), max reported value, ref Guide to Pharmacology database.
[14] abbreviates: receptor glp1r_human (GLP1R, P43220), max reported value, ref Guide to Pharmacology database.
Where [15] appears, read: receptor glp2r_human (GLP2R, O95838), max reported value, ref Guide to Pharmacology database.
The mark [16] stands for this setting: receptor kissr_human (KISS1R, Q969F8), max reported value, ref Guide to Pharmacology database.
The mark [17] stands for this setting: receptor nmur1_human (NMUR1, Q9HB89), max reported value, ref Guide to Pharmacology database.
Where [18] appears, read: receptor nmur2_human (NMUR2, Q9GZQ4), max reported value, ref Guide to Pharmacology database.

Like-named read-outs stand apart in the source and are kept apart here. No end group written: not given here.

As to “INSL5 (Insulin-like peptide INSL5 B … KESVRLCGLEYIRTVIYICASSRW; Insulin-like peptide INSL5 A … QDLQTLCCTDGCSMTDLSALC; UniProt Q9Y5Q6 23-46; Q9Y5Q6 115-135, looked up)”, under setting [1], the pEC50_value was 8.9, the pIC50_value is on record as 8.9 and the pKi_value is listed as 8.8.
For the substance PACAP-38 [reference compound], the pEC50_value by setting is: under setting [2], 10.3; under setting [3], 9.7; under setting [4], 9.3. For the same substance, the pKi_value was 9 under setting [2] and 8.2 under setting [3].
As to PTHrP-(1-36), the pIC50_value was 6.5 (receptor pth1r_human (PTH1R, Q03431), max reported value, ref Guide to Pharmacology database) and 5.7 under setting [5].
Take “PrRP-20 (TPDINPAWYASRGIRPVGRF; not fully specified; ends and bridges not checked; UniProt P81277 34-53, looked up)”: where the note is “receptor PRLHR (prlhr_human, P49683), max reported value, ref Guide to Pharmacology database”, the pKi_value is given as 9.6.
Regarding “QRFP43 (QDEGSEATGFLPAAGEKTSGPLGNLAEELNGYSRKKGGFSFRF-NH2; UniProt P83859 91-133, looked up)”, the pEC50_value (receptor QRFPR (qrfpr_human, Q96P65), max reported value, ref Guide to Pharmacology database) is 8.6.
Take SRIF-14: the pKi_value runs as follows: (receptor SSTR1 (ssr1_human, P30872), max reported value, ref Guide to Pharmacology database) 9.5; (receptor SSTR2 (ssr2_human, P30874), max reported value, ref Guide to Pharmacology database) 10.5; (receptor SSTR3 (ssr3_human, P32745), max reported value, ref Guide to Pharmacology database) 10; (receptor SSTR4 (ssr4_human, P31391), max reported value, ref Guide to Pharmacology database) 9.3; (receptor SSTR5 (ssr5_human, P35346), max reported value, ref Guide to Pharmacology database) 9.9.
For T-kinin (ISRPPGFSPFR), under setting [6], the pKi_value is given as 5.2.
Turning to TIP39, under setting [5], the pIC50_value was 9.2.
For VIP, the pEC50_value under setting [2] was 7.8, the pEC50_value under setting [3] is listed as 7.9 and the pEC50_value under setting [4] was 7.3. Also, the pIC50_value is reported as 6 under setting [2], 8 under setting [3] and 8.3 under setting [4]. Moreover, the pKi_value runs as follows: under setting [2], 6.3; under setting [3], 9; under setting [4], 8.7.
On to [Leu]enkephalin, for which the pKi_value is 8.7 under setting [7] and 8.1 under setting [8].
As for “amylin (KCNTATCATQRLANFLVHSSNNFGAILSSTNVGSNTY; not fully specified; cysteine pairing not given here; UniProt P10997 34-70, looked up)”, the pEC50_value (receptor calcr_human (CALCR), Calcitonin receptors, Class B1 (Secretin), max reported value, ref Guide to Pharmacology database) is listed as 9.2.
As to angiotensin II (DRVYIHPF), the pIC50_value (receptor agtr1_human (AGTR1, P30556), max reported value, ref Guide to Pharmacology database) is listed as 9.3. Moreover, the pKd_value (receptor agtr2_human (AGTR2, P50052), max reported value, ref Guide to Pharmacology database) is 10.2.
Take apelin-13: the pIC50_value is recorded as 9.5.
For apelin-17, the pIC50_value under setting [9] is 9.
As to “apelin-36 (LVQPRGSRNGPGPWQGGRRKFRRQRPRLSHKGPMPF; not fully specified; UniProt Q9ULZ1 42-77, looked up)”, under setting [9], the pIC50_value is 8.6.
Turning to bovine adrenal medulla peptide 8-22, under setting [10], the pEC50_value is recorded as 7.8, the pKd_value is recorded as 8 and the pKi_value is reported as 7.7.
On to calcitonin, for which the pEC50_value (receptor calcr_human (CALCR, P30988), Calcitonin receptors, max reported value, ref Guide to Pharmacology database) is 11.2.
In the case of corticotrophin-releasing hormone, the pKd_value (receptor crfr1_human (CRHR1, P34998), max reported value, ref Guide to Pharmacology database) is 9 and the pKd_value (receptor crfr2_human (CRHR2, Q13324), max reported value, ref Guide to Pharmacology database) was 7.4.
Turning to dynorphin A, the pKi_value runs as follows: under setting [7], 7.4; under setting [11], 10.8; under setting [8], 8.1.
For dynorphin A-(1-8), the pKi_value is, setting by setting: under setting [7], 8.4; under setting [11], 9.9; under setting [8], 8.4.
dynorphin A-(1-13): the pKi_value is listed as 7.8 under setting [7], 10.7 under setting [11] and 8.3 under setting [8].
Take “endothelin-2 (CSCSSWLDKECVYFCHLDIIW; ends and bridges not checked; cysteine pairing not given here; UniProt P20800 49-69, looked up)”: the pIC50_value (receptor ednra_human (EDNRA, P25101), max reported value, ref Guide to Pharmacology database) is given as 8.2.
For the substance endothelin-3, the pKd_value (receptor ednrb_human (EDNRB, P24530), max reported value, ref Guide to Pharmacology database) is listed as 11.5.
As for “galanin-like peptide (APAHRGRGGWTLNSAGYLLGPVLHLPQMGDQDGKRETALEILDLWKAIDGLPYSHPPQPS; not fully specified; UniProt Q9UBC7 25-84, looked up)”, the pIC50_value was 7.1 (receptor galr1_human (GALR1, P47211), max reported value, ref Guide to Pharmacology database); 7.7 (receptor galr2_human (GALR2, O43603), max reported value, ref Guide to Pharmacology database); 8 (receptor galr3_human (GALR3, O60755), max reported value, ref Guide to Pharmacology database).
As for gastric inhibitory polypeptide, under setting [12], the pKd_value is reported as 8.7 and the pKi_value is on record as 9.1.
“ghrelin (GSSFLSPEHQRVQQRKESKKPPAKLQPR; not fully specified; ends and bridges not checked; UniProt Q9UBU3 24-51, looked up)”: under setting [13], the pEC50_value is reported as 7.5, the pKd_value is recorded as 9.4 and the pKi_value is 8.1.
Consider glucagon, for which the pKi_value under setting [14] is reported as 7. The pEC50_value (receptor glr_human (GCGR, P47871), max reported value, ref Guide to Pharmacology database) is 9.
For the substance glucagon-like peptide 1-(7-36) amide, the pKi_value under setting [14] is 9.2.
For the substance glucagon-like peptide 2, the pIC50_value under setting [15] was 8.5.
As to “glucagon-like peptide 2-(3-33) (DGSFSDEMNTILDNLAARDFINWLIQTKITD; Glucagon-like peptide 2; UniProt P01275 148-178, looked up, fragment)”, the pIC50_value under setting [15] was 7.4.
In the case of humanin, under “receptor fpr3_human (FPR3, P25089), max reported value, ref Guide to Pharmacology database”, the pEC50_value is 8.9.
In the case of kallidin, the pKi_value under setting [6] is listed as 8.9. Further, for the setting “receptor bkrb2_human (BDKRB2, P30411), max reported value, ref Guide to Pharmacology database”, the pIC50_value is recorded as 9.3.
Take “kisspeptin-13 (LPNYNWNSFGLRF; not fully specified; ends and bridges not checked; UniProt Q15726 109-121, looked up)”: the pKi_value under setting [16] was 8.4.
Regarding “kisspeptin-14 (DLPNYNWNSFGLRF; not fully specified; ends and bridges not checked; UniProt Q15726 108-121, looked up)”, under setting [16], the pKi_value is 8.8.
For “kisspeptin-54 (GTSLSPPPESSGSPQQPGLSAPHSRQIPAPQGAVLVQREKDLPNYNWNSFGLRF; ends and bridges not checked; UniProt Q15726 68-121, looked up)”, under setting [16], the pKi_value is 9.5.
For the substance lysophosphatidylinositol, under “receptor GPR55 (gpr55_human, Q9Y2T6), max reported value, ref Guide to Pharmacology database”, the pEC50_value is recorded as 7.3.
On to melanin-concentrating hormone, for which the pKi_value (receptor mchr1_human (MCHR1, Q99705), max reported value, ref Guide to Pharmacology database) is given as 10.5. The pIC50_value (receptor mchr2_human (MCHR2, Q969V1), max reported value, ref Guide to Pharmacology database) is reported as 9.2.
For the substance “neuromedin S-33 (ILQRGSGTAAVDFTKKDHTATWGRPFFLFRPRN; not fully specified; ends and bridges not checked; UniProt Q5H8A3 109-141, looked up)”, the pEC50_value is, setting by setting: under setting [17], 10.2; under setting [18], 10. The pIC50_value runs as follows: under setting [17], 10; under setting [18], 9.2.
Regarding “neuromedin U-25 (FRVDEEFQSPFASQSRGYFLFRPRN-NH2)”, under setting [17], the pEC50_value is 9.4 and the pKi_value is reported as 9.5. Under setting [18], the pEC50_value is reported as 9.4 and the pKi_value is given as 9.6.
With “neuropeptide B-23 (WYKPAAGHSSYSVGRAAGLLSGL)”, the pIC50_value (receptor npbw2_human (NPBWR2, P48146), max reported value, ref Guide to Pharmacology database) was 8.4.
